Biological target: T1, recombinant human CCR5 receptor (Homo sapiens, UniProt P51681)
T1 construct: expressed in transfected cells; host or cells: Chinese hamster ovary (CHO) cells; membranes
Assay: Radioligand binding assay for inhibition of the binding of MIP-1α
Conditions: displacement of 0.1 nM iodinated MIP-1α; membranes of Chinese hamster ovary cells expressing CCR5
Experimental: Biological Assay for the Ability of Compounds to Inhibit the Binding of MIP-1α This ability is assessed using an in vitro radioligand binding assay. Membranes are prepared from Chinese hamster ovary cells which express the recombinant human CCR5 receptor. These membranes are incubated with 0.1 nM iodinated MIP-1α, scintillation proximity beads and various concentrations of the compounds of the invention in 96-well plates. The amount of iodinated MIP-1α bound to the receptor is then determined by scintillation counting.

T1 sequence (P51681 whole entry): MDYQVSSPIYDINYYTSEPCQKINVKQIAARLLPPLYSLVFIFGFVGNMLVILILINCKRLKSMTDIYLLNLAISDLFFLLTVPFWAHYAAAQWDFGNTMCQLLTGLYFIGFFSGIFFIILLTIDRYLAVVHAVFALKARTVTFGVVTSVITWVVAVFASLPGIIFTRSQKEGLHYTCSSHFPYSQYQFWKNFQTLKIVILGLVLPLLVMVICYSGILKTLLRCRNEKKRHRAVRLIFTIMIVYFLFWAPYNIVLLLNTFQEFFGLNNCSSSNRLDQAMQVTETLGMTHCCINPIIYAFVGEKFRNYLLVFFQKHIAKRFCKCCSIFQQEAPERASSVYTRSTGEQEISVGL

Row | SMILES | IC50
1 | Cc1ccc(NC(=O)N2CCN(C[C@H]3CN(C(C)C)CCO3)CC2)cc1Cl [Example 187, N-(3-chloro-4-methylphenyl)-4-{[(2S)-4-isopropylmorpholin-2-yl]methyl}piperazine-1-carboxamide] | < 10 µM
2 | CCN1CCC[C@@H](C(=O)N2CCN(C(=O)Nc3ccc(Cl)c(Cl)c3)CC2)C1 [Example 90, N-(3,4-dichlorophenyl)-4-{[(3R)-1-ethylpiperidin-3-yl]carbonyl}piperazine-1-carboxamide] | < 10 µM
3 | C=CCN1CCN[C@@H](C(=O)N2CCN(C(=O)Nc3ccc(Cl)c(Cl)c3)CC2)C1 [Example 303, N-(3,4-dichlorophenyl)-4-{[(2R)-4-(prop-2-en-1-yl)piperazin-2-yl]carbonyl}piperazine-1-carboxamide] | < 10 µM
4 | O=C(Nc1ccc(Cl)c(Cl)c1)N1CCN(C[C@@H]2CCCN(CC3CC3)C2)CC1 [Example 19, 4-{[(3R)-1-(cyclopropylmethyl)-piperidin-3-yl]methyl}-N-(3,4-dichlorophenyl)-piperazine-1-carboxamide] | < 10 µM
5 | CCN1CCN[C@@H](C(=O)N2CCN(C(=O)Nc3cccc(Cl)c3)CC2)C1 [Example 132, N-(3-Chlorophenyl)-4-{[(2R)-4-ethylpiperazin-2-yl]carbonyl}piperazine-1-carboxamide] | < 10 µM
6 | CC(C)N1CCN[C@@H](C(=O)N2CCN(C(=O)Nc3ccc(C(F)(F)F)cn3)CC2)C1 [Example 311, 4-{[(2R)-4-isopropylpiperazin-2-yl]carbonyl}-N-[5-(trifluoromethyl)pyridin-2-yl]piperazine-1-carboxamide] | < 10 µM
7 | O=C(Nc1ccc(Cl)c(Cl)c1)N1CCN(C[C@H]2CN(C3CCC3)CCO2)CC1 [Example 115, 4-{[(2S)-4-cyclobutylmorpholin-2-yl]methyl}-N-(3,4-dichlorophenyl)piperazine-1-carboxamide] | < 10 µM
8 | CN1CCN(C)C(CN2CCN(C(=O)Nc3ccc(Cl)c(Cl)c3)CC2)C1 (centres unmarked) [Example 209, 1-{[1,4-Dimethylpiperazin-3-yl]methyl}-N-(3,4-dichlorophenyl)piperazine-4-carboxamide] | < 10 µM
9 | O=C(Nc1ccc(Cl)c(Cl)c1)N1CCN(C(=O)[C@H]2CN(CC3CC3)CCN2)CC1 [Example 268, 4-{[(2R)-4-(cyclopropylmethyl)piperazin-2-yl]carbonyl}-N-(3,4-dichlorophenyl)piperazine-1-carboxamide] | < 10 µM
10 | CC(C)N1CCC[C@@H](CN2CCN(C(=O)Nc3ccc(Cl)c(Cl)c3)CC2)C1 [Example 84, N-(3,4-dichlorophenyl)-4-{[(3S)-1-isopropylpiperidin-3-yl]methyl}piperazine-1-carboxamide] | < 10 µM
11 | O=C(Nc1ccccc1)N1CCN(C[C@@H]2CCCN(CCc3ccc(F)cc3Cl)C2)CC1 [Example 251, 4-[[(3R)-1-[2-(2-chloro-4-fluoro-phenyl)ethyl]-3-piperidyl]methyl]-N-phenyl-piperazine-1-carboxamide] | < 10 µM
12 | CCN1CCC[C@@H](CN2CCN(C(=O)Nc3ccc(Cl)c(Cl)c3)CC2=O)C1 [Example 91, N-(3,4-dichlorophenyl)-4-{[(3R)-1-ethylpiperidin-3-yl]methyl}-3-oxopiperazine-1-carboxamide] | < 10 µM
13 | Nc1ncccc1CN1CCCC(CN2CCN(C(=O)Nc3ccc(F)c(Cl)c3)CC2)C1 (centres unmarked) [Example 266, 4-({1-[(2-aminopyridin-3-yl)methyl]piperidin-3-yl}methyl)-N-(3-chloro-4-fluorophenyl)piperazine-1-carboxamide] | < 10 µM
14 | CCN1CCN[C@@H](C(=O)N2CCN(C(=O)Nc3ccc(Cl)c(Cl)c3)CC2)C1 [Example 133, N-(3,4-Dichlorophenyl)-4-{[(2R)-4-ethylpiperazin-2-yl]carbonyl}piperazine-1-carboxamide] | < 10 µM
15 | C[C@H](CC1CCCC1)N1CCO[C@@H](CN2CCN(C(=O)Nc3ccc(F)c(Cl)c3)CC2)C1 [Example 234, N-(3-chloro-4-fluorophenyl)-4-({(2S)-4-[(1R)-2-cyclopentyl-1-methylethyl]morpholin-2-yl}methyl)piperazine-1-carboxamide] | < 10 µM
16 | COCCN1CCC[C@@H](CN2CCN(C(=O)Nc3ccc(Cl)c(Cl)c3)CC2)C1 [Example 113, N-(3,4-dichlorophenyl)-4-{[(3S)-1-(2-methoxyethyl)piperidin-3-yl]methyl}piperazine-1-carboxamide] | < 10 µM
17 | COc1ccc(CN2CCC[C@@H](CN3CCN(C(=O)Nc4ccccc4)CC3)C2)cn1 [Example 247, 4-({(3R)-1-[(6-methoxypyridin-3-yl)methyl]piperidin-3-yl}methyl)-N-phenyl piperazine-1-carboxamide] | < 10 µM
18 | CC(C)N1CCN[C@@H](C(=O)N2CCN(C(=O)Nc3ncc(Cl)s3)CC2)C1 [Example 264, N-(5-Chloro-1,3-thiazol-2-yl)-4-{[(2R)-4-isopropylpiperazin-2-yl]carbonyl}piperazine-1-carboxamide] | < 10 µM

Row | SMILES | IC50
19 | CC(CC(C)(C)O)N1CCN[C@@H](C(=O)N2CCN(C(=O)Nc3ccc(Cl)c(Cl)c3)CC2)C1 (stereo partly drawn) [Example 269, N-(3,4-dichlorophenyl)-4-{[(2R)-4-(3-hydroxy-1,3-dimethylbutyl)piperazin-2-yl]carbonyl}piperazine-1-carboxamide] | < 10 µM
20 | O=C(Nc1ccc(Cl)c(Cl)c1)N1CCN(C(=O)[C@H]2CN(C3CCCCC3)CCN2)CC1 [Example 277, 4-{[(2R)-4-Cyclohexylpiperazin-2-yl]carbonyl}-N-(3,4-dichlorophenyl)piperazine-1-carboxamide] | < 10 µM
21 | O=C(Nc1ccc(Cl)c(Cl)c1)N1CCN(C[C@@H]2CCCN(Cc3ccc(O)nc3)C2)CC1 [Example 257, N-(3,4-dichlorophenyl)-4-({(3R)-1-[(6-hydroxypyridin-3-yl)methyl]piperidin-3-yl}methyl)piperazine-1-carboxamide] | < 10 µM
22 | Cc1cccnc1CN1CCC[C@@H](CN2CCN(C(=O)Nc3ccc(Cl)c(Cl)c3)CC2)C1 [Example 44, N-(3,4-dichlorophenyl)-4-({(3S)-1-[(3-methylpyridin-2-yl)methyl]piperidin-3-yl}methyl)piperazine-1-carboxamide] | < 10 µM
23 | O=C1CN(C(=O)Nc2ccc(Cl)c(Cl)c2)CCN1CC1CCCN(Cc2ccccc2)C1 (centres unmarked) [Example 42, 4-[(1-benzylpiperidin-3-yl)methyl]-N-(3,4-dichlorophenyl)-3-oxopiperazine-1-carboxamide] | < 10 µM
24 | CC(C)N1CC[C@@H](CN2CCN(C(=O)Nc3ccc(Cl)c(Cl)c3)CC2)C1 [Example 231, N-(3,4-dichlorophenyl)-4-{[(3S)-1-isopropylpyrrolidin-3-yl]methyl}piperazine-1-carboxamide] | < 10 µM
25 | O=C(Nc1ccc(Cl)c(Cl)c1)N1CCN(C[C@H]2CCN([C@H]3CC[C@](O)(c4cccnc4)CC3)C2)CC1 [Example 228, N-(3,4-dichlorophenyl)-4-{[(3R)-1-(cis-4-hydroxy-4-pyridin-3-ylcyclohexyl)pyrrolidin-3-yl]methyl}piperazine-1-carboxamide] | < 10 µM
26 | CS(=O)(=O)c1ccc(CCCN2CCC[C@@H](CN3CCN(C(=O)Nc4ccc(C(F)(F)F)cc4)CC3)C2)cc1 [Example 326, 4-[((3R)-1-{3-[4-(Methylsulfonyl)phenyl]propyl}piperidin-3-yl)methyl]-N-[4-(trifluoromethyl)phenyl]piperazine-1-carboxamide] | < 10 µM
27 | O=C(Nc1ccc(Cl)c(Cl)c1)N1CCN(C(=O)[C@H]2CN(C3CCSCC3)CCN2)CC1 [Example 280, N-(3,4-Dichlorophenyl)-4-{[(2R)-4-(tetrahydro-2H-thiopyran-4-yl)piperazin-2-yl]carbonyl}piperazine-1-carboxamide] | < 10 µM
28 | O=C(Nc1ccccc1)N1CCN(C[C@@H]2CCCN(CCc3c(Cl)cccc3Cl)C2)CC1 [Example 252, 4-[[(3R)-1-[2-(2,6-dichlorophenyl)ethyl]-3-piperidyl]methyl]-N-phenyl-piperazine-1-carboxamide] | < 10 µM
29 | CC(C)N1CCN[C@@H](C(=O)N2CCN(C(=O)Nc3ccc(F)c(Cl)c3)CC2)C1 [Example 216] | < 10 µM
30 | CC(C)N1CCN[C@@H](C(=O)N2CCN(C(=O)Nc3cc(Cl)cc(Cl)c3)CC2)C1 [Example 287, N-(3,5-Dichlorophenyl)-4-{[(2R)-4-isopropylpiperazin-2-yl]carbonyl}piperazine-1-carboxamide] | < 10 µM
31 | O=C(Nc1ccc(Cl)cc1)N1CCN(CC2CCCN(C3CC3)C2)CC1 (stereo in doubt) [Example 185, N-(4-chlorophenyl)-4-{[(3R)-1-(2-cyclopropyl)piperidin-3-yl]methyl}piperazine-1-carboxamide] | < 10 µM
32 | CC(C)N1CCN[C@@H](C(=O)N2CCN(C(=O)Nc3ccc(C#N)c(C(F)(F)F)c3)CC2)C1 [Example 292, N-[4-Cyano-3-(trifluoromethyl)phenyl]-4-{[(2R)-4-isopropylpiperazin-2-yl]carbonyl}piperazine-1-carboxamide] | < 10 µM
33 | O=C(Nc1ccc(Cl)c(Cl)c1)N1CCN(C(=O)[C@H]2CN(CCc3ccccc3)CCN2)CC1 [Example 138, N-(3,4-Dichlorophenyl)-4-{[(2R)-4-(2-phenylethyl)piperazin-2-yl]carbonyl}piperazine-1-carboxamide] | < 10 µM
34 | CC(Cc1ccccc1)N1CCCC(CN2CCN(C(=O)Nc3ccccc3)CC2)C1 (stereo in doubt) [Example 246, 4-[[(3R)-1-(1-methyl-2-phenyl-ethyl)-3-piperidyl]methyl]-N-phenyl-piperazine-1-carboxamide] | < 10 µM
35 | O=C(Nc1ccc(Cl)c(Cl)c1)N1CCN(C[C@@H]2CCCN(Cc3ccc(N4CCOCC4)nc3)C2)CC1 [Example 255, N-(3,4-dichlorophenyl)-4-[[(3R)-1-[(6-morpholin-4-ylpyridin-3-yl)methyl]-3-piperidyl]methyl]piperazine-1-carboxamide] | < 10 µM
